Assay results: patent US20240002375A1, “2-(INDAZOL-5-YL)-6-(PIPERIDIN-4-YL)-1,7-NAPHTHYRIDINE DERIVATIVES AND RELATED COMPOUNDS AS MODULATORS FOR SPLICING NUCLEIC ACIDS AND FOR THE TRE” (REMIX THERAPEUTICS INC., priority 2020, published 2024)

Columns and labels:
Assay type in all cases: cell-based
HTT CJ mRNA = assay: Gene panel canonical junction qPCR splicing assay, HTT; conditions: Table 4, read-out: HTT IC50 (decrease in CJ mRNA levels)
Summary of the method: (§1)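 A673 or K562 cells treated with compound; canonical-junction mRNA measured by RT-qPCR with junction-spanning primer/probe sets, normalized to GAPDH, GUSB or PPIA and DMSO (2^−ΔΔCt). IC50 for CJ decrease from 4-parameter logistic fit of percentage response.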

Target C CJ mRNA = assay: Gene panel canonical junction qPCR splicing assay, Target C; conditions: Table 4, read-out: Target C IC50 (decrease in CJ mRNA levels)
Summary of the method: as §1

HTT mRNA = assay: Splicing assay (RT-qPCR) of HTT mRNA alternative junction (AJ) and canonical junction (CJ); conditions: A673 or K562 cells, 24 hours; for IC50: decrease in CJ mRNA, read-out: HTT CJ IC50; for AC50: increase in AJ mRNA, read-out: HTT AJ AC50
Summary of the method: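 A673 (adherent, 24 h pre-plating) or K562 cells treated 24 h at 37 °C with an 11-point 3-fold dilution series, top 10 uM, DMSO ≤0.25%. Lysates analysed by one-step RT-qPCR for HTT canonical (CJ) and alternative-exon (AJ) junctions, normalised to PPIA (A673) or GAPDH/GUSB (K562).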

SMN2 CJ mRNA = assay: Gene panel canonical junction qPCR splicing assay, SMN2; conditions: Table 4, read-out: SMN2 IC50 (decrease in CJ mRNA levels)
Summary of the method: as §1

IC50 (HTT CJ mRNA) [nM] | IC50 (Target C CJ mRNA) [nM] | IC50 (HTT mRNA) [nM] | IC50 (SMN2 CJ mRNA) [nM] | Structure (SMILES) | AC50 (HTT mRNA) [nM]
< 100 | < 100 | < 100 | < 100 | Cc1nc2c(F)c(O)c(-c3ccc4nc(N5CC[C@@H](NC6CC6)C5)ccc4n3)cc2o1 (single isomer, unassigned) [Compound 253, 6-{6-[3-(cyclopropylamino)pyrrolidin-1-yl]-1,5-naphthyridin-2-yl}-4-fluoro-2-methyl-1,3-benzoxazol-5-ol] | < 100
< 100 | < 100 | < 100 | < 100 | Cc1nc2c(F)c(O)c(-c3ccc4nc(N5CC[C@H](NC6CC6)C5)ccc4n3)cc2o1 (single isomer, unassigned) [Compound 254, 6-{6-[3-(cyclopropylamino)pyrrolidin-1-yl]-1,5-naphthyridin-2-yl}-4-fluoro-2-methyl-1,3-benzoxazol-5-ol] | < 100
< 100 | < 100 | < 100 | < 100 | Cc1nc2cc(O)c(-c3ccc4nc(N5CC[C@H](NC(C)C)C5)ccc4n3)cc2o1 (single isomer, unassigned) [Compound 233, 6-{6-[3-(isopropylamino)pyrrolidin-1-yl]-1,5-naphthyridin-2-yl}-2-methyl-1,3-benzoxazol-5-ol] | < 100
< 100 | < 100 | < 100 | < 100 | Cc1nc2c(F)c(O)c(-c3ccc4nc(N5CC[C@H](NC(C)(C)C)C5)ccc4n3)cc2o1 (single isomer, unassigned) [Compound 255, 6-{6-[3-(tert-butylamino)pyrrolidin-1-yl]-1,5-naphthyridin-2-yl}-4-fluoro-2-methyl-1,3-benzoxazol-5-ol] | < 100
< 100 | < 100 | < 100 | < 100 | Cc1nc2c(C)c(O)c(-c3ccc4nc(N5CCC(NC6CC6)C5)ccc4n3)cc2o1 (single isomer, unassigned) [Compound 216, 6-{6-[3-(cyclopropylamino)pyrrolidin-1-yl]-1,5-naphthyridin-2-yl}-2,4-dimethyl-1,3-benzoxazol-5-ol] | < 100
1000 to 10000 | 1000 to 10000 | 1000 to 10000 | 1000 to 10000 | Cn1cc2nc(-c3ccc4nc(N5CCC(NC(C)(C)C)C5)ccc4n3)c(F)cc2n1 (stereo not drawn) [Compound 207] | 1000 to 10000
< 100 | 100 to 1000 | < 100 | < 100 | Cc1nc2cc(O)c(-c3ccc4nc(N5CCC(NC6CCC6)C5)ccc4n3)cc2o1 (single isomer, unassigned) [Compound 230, 6-{6-[3-(cyclobutylamino)pyrrolidin-1-yl]-1,5-naphthyridin-2-yl}-2-methyl-1,3-benzoxazol-5-ol] | < 100
1000 to 10000 | > 10000 | 1000 to 10000 | 100 to 1000 | Cn1cc2cc(-c3ccc4nc(C5CCNCC5)ccc4n3)c(C#N)cc2n1 [Compound 204, 2-methyl-5-[6-(piperidin-4-yl)-1,5-naphthyridin-2-yl]indazole-6-carbonitrile] | 1000 to 10000

The next lines start with the compound.

Structure (SMILES) | IC50 (HTT CJ mRNA) [nM] | IC50 (Target C CJ mRNA) [nM] | IC50 (HTT mRNA) [nM] | IC50 (SMN2 CJ mRNA) [nM] | AC50 (HTT mRNA) [nM]
Cn1cc2cc(-c3ccc4nc(N5CC[C@H](NCC6CC6)C5)ccc4n3)c(O)cc2n1 [Compound 194] | < 100 | < 100 | < 100 | < 100 | < 100
CN1CCN(c2ccc3nc(-c4cc5cn(C)nc5cc4O)ccc3n2)CC1 [Compound 116, 2-methyl-5-[6-(4-methylpiperazin-1-yl)-1,5-naphthyridin-2-yl]indazol-6-ol] | 1000 to 10000 | 1000 to 10000 | 1000 to 10000 | < 100 | 1000 to 10000
C[C@@H]1CC(c2ccc3nc(-c4cc5cn(C)nc5cc4O)ccc3n2)C[C@H](C)N1 (stereo partly drawn) [Compound 137, 5-[6-[(2R,6S)-2,6-dimethylpiperidin-4-yl]-1,5-naphthyridin-2-yl]-2-methylindazol-6-ol] | 100 to 1000 | 1000 to 10000 | 100 to 1000 | < 100 | 100 to 1000
COc1cc2c(=O)n(C)cnc2cc1-c1ccc2nc(N3CCC(NC(C)(C)C)C3)ccc2n1 (stereo not drawn) [Compound 168, 7-{6-[3-(tert-butylamino)pyrrolidin-1-yl]-1,5-naphthyridin-2-yl}-6-methoxy-3-methylquinazolin-4-one] | > 10000 | > 10000 | > 10000 | > 10000 | > 10000
Cn1cc2cc(-c3ccc4nc(N5CC[C@@H](NC6COC6)C5)ccc4n3)c(O)cc2n1 [Compound 188] | 100 to 1000 | 1000 to 10000 | 100 to 1000 | < 100 | 100 to 1000
Cn1cc2cc(-c3ccc4nc(N5CCC(NC6CC6)C5)ccc4n3)c(O)cc2n1 (stereo not drawn) [Compound 158] | < 100 | < 100 | < 100 | < 100 | < 100
CCNC1CCN(c2ccc3nc(-c4cc5cn(C)nc5cc4O)ccc3n2)CC1 [Compound 131, 5-[6-[4-(ethylamino)piperidin-1-yl]-1,5-naphthyridin-2-yl]-2-methylindazol-6-ol] | 1000 to 10000 | > 10000 | 1000 to 10000 | < 100 | > 10000
CN(C)C1CCN(c2ccc3nc(-c4cc5cn(C)nc5cc4O)ccc3n2)C1 (stereo not drawn) [Compound 129, 5-[6-[3-(dimethylamino)pyrrolidin-1-yl]-1,5-naphthyridin-2-yl]-2-methylindazol-6-ol] | 100 to 1000 | 100 to 1000 | 100 to 1000 | < 100 | 100 to 1000
Cn1cc2cc(O)c(-c3ccc4nc(C5CCNCC5)ccc4n3)cc2n1 [Compound 146, 2-methyl-6-[6-(piperidin-4-yl)-1,5-naphthyridin-2-yl]indazol-5-ol] | 1000 to 10000 | 1000 to 10000 | 1000 to 10000 | 100 to 1000 | 1000 to 10000
CC(C)(C)NC1CCN(c2ccc3nc(-c4cc5cnccc5cc4O)ccc3n2)C1 (stereo not drawn) [Compound 166, 7-{6-[3-(tert-butylamino)pyrrolidin-1-yl]-1,5-naphthyridin-2-yl}isoquinolin-6-ol] | > 10000 | > 10000 | > 10000 | > 10000 | > 10000
CN1CC2(C1)CN(c1ccc3nc(-c4cc5cn(C)nc5cc4O)ccc3n1)C2 [Compound 123, 2-methyl-5-(6-[6-methyl-2,6-diazaspiro[3.3]heptan-2-yl]-1,5-naphthyridin-2-yl) indazol-6-ol] | 100 to 1000 | < 100 | < 100 | < 100 | 100 to 1000
Cn1cc2cc(-c3ccc4nc(C5CCNCC5)ccc4n3)c(C(F)F)cc2n1 [Compound 196, 2-[6-(difluoromethyl)-2-methylindazol-5-yl]-6-(piperidin-4-yl)-1,5-naphthyridine] | > 10000 | > 10000 | > 10000 | 1000 to 10000 | > 10000
Cn1cc2cc(-c3ccc4nc(N5CCN6CCCC6C5)ccc4n3)c(O)cc2n1 (stereo not drawn) [Compound 134, 5-(6-[hexahydro-1H-pyrrolo[1,2-a]pyrazin-2-yl]-1,5-naphthyridin-2-yl)-2-methylindazol-6-ol] | 1000 to 10000 | 1000 to 10000 | 1000 to 10000 | < 100 | 1000 to 10000
